Test results reported in ChEMBL document CHEMBL3638458, “Amine substituted methanesulfonamide derivatives as vanilloid receptor ligands” (2014).

Target: Transient receptor potential cation channel subfamily V member 1 (Homo sapiens, UniProt Q8NER1)
Test: FLIPR Assay: The FLIPR protocol consists of 2 substance additions. First the compounds to be tested (10 μM) are pipetted onto the cells and the Ca2+ influx is compared with the control (capsaicin 10 μM). This provides the result in % activation based on the Ca2+ signal after the addition of 10 μM of capsaicin (CP). After 5 minutes incubation, 100 nM of capsaicin are applied and the Ca2+ influx is also determined. Desensitising agonists and antagonists lead to suppression of the Ca2+ influx. The % inhibition is calculated compared to the maximum achievable inhibition with 10 μM of capsazepine. Starting from the percentage displacement caused by different concentrations of the compounds to be tested of general formula I, IC50 inhibitory concentrations which cause a 50-percent displacement of capsaicin were calculated. K1 values for the test substances were obtained by conversion by means of the Cheng-Prusoff equation (Cheng, Prusoff; Biochem. Pharmacol. 22, 3099-3108, 1973).

Chain of Transient receptor potential cation channel subfamily V member 1 (Q8NER1 whole entry): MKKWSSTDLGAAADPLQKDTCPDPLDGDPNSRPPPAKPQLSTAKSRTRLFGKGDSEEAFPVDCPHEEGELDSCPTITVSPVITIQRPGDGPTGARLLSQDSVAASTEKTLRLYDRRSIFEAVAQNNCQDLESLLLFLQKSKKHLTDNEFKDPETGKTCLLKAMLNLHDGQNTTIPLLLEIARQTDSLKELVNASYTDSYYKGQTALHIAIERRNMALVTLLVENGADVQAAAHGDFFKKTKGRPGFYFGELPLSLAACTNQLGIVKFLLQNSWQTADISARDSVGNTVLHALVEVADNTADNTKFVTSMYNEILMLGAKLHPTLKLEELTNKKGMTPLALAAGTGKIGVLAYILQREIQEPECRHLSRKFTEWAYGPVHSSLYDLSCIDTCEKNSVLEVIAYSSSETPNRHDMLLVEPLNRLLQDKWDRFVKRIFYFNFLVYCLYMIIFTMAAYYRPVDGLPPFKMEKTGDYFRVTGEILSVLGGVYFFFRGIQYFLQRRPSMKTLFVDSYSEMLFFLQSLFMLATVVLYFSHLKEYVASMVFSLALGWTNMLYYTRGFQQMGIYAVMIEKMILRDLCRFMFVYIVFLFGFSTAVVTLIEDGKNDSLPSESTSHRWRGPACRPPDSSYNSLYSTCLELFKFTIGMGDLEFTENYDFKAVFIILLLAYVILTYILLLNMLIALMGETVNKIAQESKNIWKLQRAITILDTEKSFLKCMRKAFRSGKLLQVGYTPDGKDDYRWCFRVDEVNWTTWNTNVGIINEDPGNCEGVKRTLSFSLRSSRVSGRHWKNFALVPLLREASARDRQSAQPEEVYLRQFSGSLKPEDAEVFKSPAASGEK

Structure (SMILES)	Ki
CC1CCN(c2nc(C(F)(F)F)ccc2CNC(=O)C(C)c2cccc(CNS(C)(=O)=O)c2)CC1 (centres undefined)	102 nM
CC(C(=O)NCc1ccc(C(F)(F)F)nc1N1CCCC1)c1ccc(CNS(C)(=O)=O)cc1 (centres undefined)	20 nM
Cc1cc(C(C)C(=O)NCc2ccc(C(F)(F)F)nc2N2CCCC2)ccc1CNS(C)(=O)=O (centres undefined)	50 nM
CCS(=O)(=O)NCc1ccc(C(C)C(=O)NCc2ccc(C(F)(F)F)nc2N2CCC(C)CC2)cc1F (centres undefined)	4 nM
